Counter-ions that a name gives are not always drawn.
Tests used:
[1] = target: Testosterone 5α-reductase; experiment: Testosterone 5α-reductase inhibitory action, nuclear fraction of rat prostates; assay type: biochemical, Wistar rat; conditions: rat prostate nuclear fraction, [4-^14 C]-testosterone, NADPH, pH 7.0, 60 minutes at 37° C.
Description: Male Wistar rats (age: 9-10 weeks old) were anesthetized with ether. The abdomen of each rat was median-cut to thereby remove the prostate. The isolated prostates were weighed and homogenized in 3 tissue volumes of 50 mM Tris-HCl buffer (pH 7.2) containing 0.25 M sucrose. The homogenates were filtered with gauze and centrifuged at 3,000 rpm for 10 minutes. The pellets were resuspended in a buffer as described above and the resultant suspension was used as a nuclear fraction.
The nuclear fraction of the prostates (0.1 ml), 5 mM NADPH (0.1 ml), and a test drug solution (DMSO solution containing the test drug; 0.01 ml) were added to 50 mM Tris-HCl buffer (pH 7.0; 0.78 ml). Reaction was initiated by addition of 150 μM [4-^14 C]-testosterone (0.01 ml) to the resultant solution, and the reaction mixture was incubated for 60 minutes at 37° C. After incubation, reaction was stopped by addition of ethyl acetate (4 ml), and simultaneously, the reaction mixture was subjected to extraction. The extract (3 ml) was brought to dryness through evaporation with nitrogen gas. Ethyl acetate (40 μl) was added thereto, and a 10 μl portion was applied to a silica gel thin layer plate for development with a solvent mixture of ethyl acetate and cyclohexane (1:1). After development, the plate was subjected to autoradiography, and spots attributed to testosterone, dihydrotestosterone, and other metabolites were collected by scraping. Radioactivity of the spots was counted in a liquid scintillation counter. From the total radioactivity and the radioactivity of 5α-metabolites, reaction ratio was obtained. IC50 of the compound, which represents the inhibitory activity of the test compound, was calculated from the reaction ratio of the control solvent and the reaction ratio obtained when the compound was added.

α1 -adrenergic receptor [2] = target: T1, α1 -adrenergic receptor (Oryctolagus cuniculus, UniProt O02824); experiment: α1-Adrenergic receptor blocking action, rabbit prostate smooth muscle strips (phenylephrine contraction); assay type: cell-based
T1 construct: Transverse smooth muscle strips were prepared; from tissue; host or cells: rabbit prostate, transverse smooth muscle strips
T1 sequence (O02824 1-466): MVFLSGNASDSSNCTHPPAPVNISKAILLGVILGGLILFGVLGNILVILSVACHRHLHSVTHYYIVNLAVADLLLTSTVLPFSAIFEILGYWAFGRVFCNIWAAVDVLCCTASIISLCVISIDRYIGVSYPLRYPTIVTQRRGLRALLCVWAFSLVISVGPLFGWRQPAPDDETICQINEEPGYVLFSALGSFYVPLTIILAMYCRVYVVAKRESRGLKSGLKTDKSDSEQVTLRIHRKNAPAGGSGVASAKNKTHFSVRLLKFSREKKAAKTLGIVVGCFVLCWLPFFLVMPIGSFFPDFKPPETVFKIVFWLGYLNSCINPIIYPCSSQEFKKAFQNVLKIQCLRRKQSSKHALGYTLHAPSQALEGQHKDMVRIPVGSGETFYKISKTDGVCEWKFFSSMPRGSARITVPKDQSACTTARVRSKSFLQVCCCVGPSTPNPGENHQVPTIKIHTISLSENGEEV
Description: (§1) Rabbits were sacrificed by exsanguination, and in each rabbit the urethra and prostate were isolated from the lower urinary tract system. Transverse smooth muscle strips were prepared. Each strip was suspended in a 37° C. Krebs-solution-containing organ bath which had been bubbled with 95% O2 and 5% CO2. Isometric contraction under a resting tension of 1 g was recorded with an isometric transducer (TB-651T, Nihon Koden) on a thermal pen-type recorder (RECTI HORIZ 8K, Nihon Denki San'ei).
(§2) The strip was allowed to stand for equilibration for 60 minutes, and contractions were elicited by a certain concentration of phenylephrine (10^-5 M). The organ bath was washed with a nutrient liquid. Thereafter, the above procedure was repeated at 60-minute intervals until constant contraction responses were obtained. Subsequently, dose-response curves were obtained by administration of phenylephrine in an accumulative manner (10^-7 to 3×10^-4 M). After the strips were washed and then rested for 60 minutes, the strips were treated with a test drug solution (i.e., DMSO solution containing the test drug; 10^-7 to 10^-5 M) for 30 minutes, to thereby obtain dose-response curves for phenylephrine.
(§3) The composition of the nutrient solution was as follows.
(§4) In all cases, 10^-5 M propranolol (β-adrenaline antagonist) was administered 10 minutes before administration of the drug.
(§5) The efficacy of each test drug in terms of α1 -adrenergic receptor blocking action was assessed from calculation of pA2 (inverse of logarithm of the mole concentration of antagonist which requires, in the presence of an antagonist, twice the concentration of an agonist that provides an effect equal to that obtained in the absence of an antagonist).

α1 -adrenergic receptor [3] = target: T1, α1 -adrenergic receptor; experiment: α1-Adrenergic receptor blocking action, rabbit urethra smooth muscle strips (phenylephrine contraction); assay type: cell-based
Description: as §1, §2, §3, §4, §5

[4] = rabbit prostate strips, phenylephrine 10^-7 to 3×10^-4 M, test drug 30 minutes, 10^-5 M propranolol present, read-out: Prostate (pA2) (converted)
[5] = rabbit urethra strips, phenylephrine 10^-7 to 3×10^-4 M, test drug 30 minutes, 10^-5 M propranolol present, read-out: Urethra (pA2) (converted)

Row | SMILES | IC50 [1] [µM] | Kb (α1 -adrenergic receptor [2]) [µM] | Kb (α1 -adrenergic receptor [3]) [µM] | Kb (α1 -adrenergic receptor [2]; [4]) [µM] | Kb (α1 -adrenergic receptor [3]; [5]) [µM]
1 | CCOc1ccccc1N1CCN(CCCOc2cc(C(=O)c3cn(CCCC(=O)O)c4ccccc34)ccc2NCc2ccc(C)cc2)CC1 [Example 8, 4-{3-{4-[(4-Methylphenyl)methylamino]-3-{3-[4-(2-ethoxyphenyl)piperazin-1-yl]propoxy}benzoyl}indol-1-yl}butanoic acid] | 0.001 | – | – | – | –
2 | CCc1ccc(CNc2ccc(C(=O)c3cn(CCCC(=O)O)c4ccccc34)cc2OCCCN2CCN(c3ccccc3OC)CC2)cc1 [Example 1, 4-{3-{4-(4-Ethylphenyl)methylamino-3-{3-[4-(2-methoxyphenyl)piperazin-1-yl]propoxy}benzoyl}indol-1-yl}butanoic acid hydrochloride] | 0.0007 | 0.224 | 0.302 | – | –
3 | COc1ccccc1N1CCN(CCCOc2cc(C(=O)c3cn(CCCC(=O)O)c4ccccc34)ccc2NCc2ccc(C)cc2)CC1 [Example 7] | 0.00086 | – | – | 0.0955 | 0.316
4 | CCOc1ccccc1N1CCN(CCCOc2cc(C(=O)c3cn(CCCC(=O)O)c4ccccc34)ccc2NCc2ccc(CC)cc2)CC1 [Example 10, 4-{3-{3-{3-[4-(2-Ethoxyphenyl)piperazin-1-yl]propoxy}-4-[(4-ethylphenyl)methylamino]benzoyl}indol-1-yl}butanoic acid] | 0.00047 | – | – | – | –
5 | COc1ccccc1N1CCN(CCCOc2cc(C(=O)c3cn(CCCC(=O)O)c4ccccc34)ccc2NCc2ccccc2)CC1 [Example 5] | – | – | – | 0.0537 | 0.174
